Laboratory results reported in PubChem BioAssay (NCI).
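These data come from cells grown in 96-well plates and exposed to compound for 48 hours at five concentrations. TGI is the concentration that stops growth completely.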

Tests used:
Assay in all cases: NCI tumour cell line growth inhibition, 48 h
SF-268 CNS = tested on: SF-268 CNS
CCRF-CEM leukemia = tested on: CCRF-CEM leukemia
U251 CNS = tested on: U251 CNS
M14 melanoma = tested on: M14 melanoma
OVCAR-5 ovarian = tested on: OVCAR-5 ovarian
MOLT-4 leukemia = tested on: MOLT-4 leukemia
K-562 leukemia = tested on: K-562 leukemia
NCI-H23 lung = tested on: NCI-H23 lung
KM12 colon = tested on: KM12 colon
NCI-H522 lung = tested on: NCI-H522 lung
OVCAR-8 ovarian = tested on: OVCAR-8 ovarian
OVCAR-4 ovarian = tested on: OVCAR-4 ovarian
KM20L2 colon = tested on: KM20L2 colon
A549 NSCLC = tested on: A549 NSCLC
SK-MEL-2 melanoma = tested on: SK-MEL-2 melanoma
786-0 renal = tested on: 786-0 renal
SNB-78 CNS = tested on: SNB-78 CNS
HOP-62 NSCLC = tested on: HOP-62 NSCLC
HCT-15 colon = tested on: HCT-15 colon
SNB-19 CNS = tested on: SNB-19 CNS
NCI-H460 lung = tested on: NCI-H460 lung
CAKI-1 renal = tested on: CAKI-1 renal
SF-295 CNS = tested on: SF-295 CNS
RPMI-8226 leukemia = tested on: RPMI-8226 leukemia
XF 498 CNS = tested on: XF 498 CNS
SK-MEL-5 melanoma = tested on: SK-MEL-5 melanoma
UACC-257 melanoma = tested on: UACC-257 melanoma
TK-10 renal = tested on: TK-10 renal
MALME-3M melanoma = tested on: MALME-3M melanoma
SK-MEL-28 melanoma = tested on: SK-MEL-28 melanoma
HT29 colon = tested on: HT29 colon
A498 renal = tested on: A498 renal
ACHN renal = tested on: ACHN renal
SN12C renal = tested on: SN12C renal
SNB-75 CNS = tested on: SNB-75 CNS
LXFL 529 NSCLC = tested on: LXFL 529 NSCLC
DLD-1 colon = tested on: DLD-1 colon
OVCAR-3 ovarian = tested on: OVCAR-3 ovarian
UO-31 renal = tested on: UO-31 renal
HCC-2998 colon = tested on: HCC-2998 colon
EKVX NSCLC = tested on: EKVX NSCLC
SW-620 colon = tested on: SW-620 colon
SF-539 CNS = tested on: SF-539 CNS
DMS 114 small cell lung = tested on: DMS 114 small cell lung
HL-60(TB) leukemia = tested on: HL-60(TB) leukemia
UACC-62 melanoma = tested on: UACC-62 melanoma
DMS 273 small cell lung = tested on: DMS 273 small cell lung
NCI-H226 lung = tested on: NCI-H226 lung
SR leukemia = tested on: SR leukemia
HCT-116 colon = tested on: HCT-116 colon
SK-OV-3 ovarian = tested on: SK-OV-3 ovarian
COLO 205 colon = tested on: COLO 205 colon
M19-MEL melanoma = tested on: M19-MEL melanoma
IGROV1 ovarian = tested on: IGROV1 ovarian
LOX IMVI melanoma = tested on: LOX IMVI melanoma
HOP-92 NSCLC = tested on: HOP-92 NSCLC
RXF 393 renal = tested on: RXF 393 renal

Measured: TGI

C=CCN1C2Cc3cc(OC)c(OC)cc3C1Cc1cc(OC)c(OC)cc12
not listed: SF-539 CNS | DMS 114 small cell lung | HL-60(TB) leukemia | UACC-62 melanoma | DMS 273 small cell lung | NCI-H226 lung | SR leukemia | HCT-116 colon | SK-OV-3 ovarian | COLO 205 colon | M19-MEL melanoma | IGROV1 ovarian | LOX IMVI melanoma | HOP-92 NSCLC | RXF 393 renal
> 100 µM: all other assays above

O=[N+]([O-])c1nccn1COCCI
not listed: A498 renal | HCC-2998 colon | RXF 393 renal
> 100 µM: all other assays above

CC1=C(O)C(=O)C2C(=O)C1C(C)C2c1ccc(C)cc1 (stereo not drawn)
not listed: SN12C renal | DMS 114 small cell lung | HL-60(TB) leukemia | NCI-H226 lung | HCT-116 colon
> 100 µM: all other assays above
